Measured values from the NIST ThermoML archive (doi:10.1016/j.tca.2005.03.009).

Test: excess molar enthalpy (molar enthalpy of mixing); xn = mol fraction of the nth substance listed
Conditions: 298.15 K, 10000 kPa, Liquid, Flow calorimetry

CCC(C)=O [butanone] + CCOC(C)=O
Conditions	excess molar enthalpy [kcal/mol]
x2 = 0.047	0.0711
x2 = 0.082	0.119
x2 = 0.118	0.165
x2 = 0.153	0.201
x2 = 0.189	0.24
x2 = 0.225	0.271
x2 = 0.262	0.301
x2 = 0.298	0.323
x2 = 0.335	0.346
x2 = 0.371	0.362
x2 = 0.408	0.378
x2 = 0.446	0.389
x2 = 0.483	0.4
x2 = 0.52	0.405
x2 = 0.558	0.403
x2 = 0.596	0.401
x2 = 0.634	0.387
x2 = 0.673	0.374
x2 = 0.711	0.354
x2 = 0.75	0.33
x2 = 0.789	0.296
x2 = 0.828	0.261
x2 = 0.867	0.216
x2 = 0.907	0.163
x2 = 0.947	0.103
x2 = 0.96	0.0773
x2 = 0.974	0.0518

CCOC(C)=O [ethyl acetate] + CO
Conditions	excess molar enthalpy [kcal/mol]
x1 = 0.057	0.0436
x1 = 0.086	0.0651
x1 = 0.113	0.0798
x1 = 0.188	0.125
x1 = 0.257	0.163
x1 = 0.319	0.193
x1 = 0.377	0.214
x1 = 0.43	0.231
x1 = 0.478	0.238
x1 = 0.524	0.242
x1 = 0.566	0.241
x1 = 0.605	0.236
x1 = 0.641	0.234
x1 = 0.675	0.226
x1 = 0.707	0.218
x1 = 0.738	0.208
x1 = 0.766	0.196
x1 = 0.793	0.183
x1 = 0.818	0.17
x1 = 0.842	0.156
x1 = 0.864	0.14
x1 = 0.886	0.124
x1 = 0.906	0.107
x1 = 0.926	0.0879
x1 = 0.944	0.068
x1 = 0.962	0.0478
x1 = 0.979	0.0253

CCOC(C)=O [ethyl acetate] + CCO
Conditions	excess molar enthalpy [kcal/mol]
x1 = 0.03	0.0337
x1 = 0.054	0.0591
x1 = 0.078	0.0875
x1 = 0.104	0.112
x1 = 0.13	0.135
x1 = 0.157	0.158
x1 = 0.184	0.18
x1 = 0.213	0.202
x1 = 0.243	0.223
x1 = 0.274	0.241
x1 = 0.306	0.259
x1 = 0.339	0.274
x1 = 0.373	0.288
x1 = 0.409	0.299
x1 = 0.446	0.31
x1 = 0.485	0.317
x1 = 0.525	0.32
x1 = 0.567	0.318
x1 = 0.611	0.313
x1 = 0.657	0.301
x1 = 0.705	0.285
x1 = 0.754	0.26
x1 = 0.807	0.226
x1 = 0.861	0.182
x1 = 0.919	0.122
x1 = 0.939	0.0955
x1 = 0.96	0.0656

CCOC(C)=O [ethyl acetate] + CCCO
Conditions	excess molar enthalpy [kcal/mol]
x1 = 0.039	0.0599
x1 = 0.068	0.0949
x1 = 0.098	0.129
x1 = 0.129	0.161
x1 = 0.16	0.19
x1 = 0.192	0.22
x1 = 0.225	0.243
x1 = 0.258	0.268
x1 = 0.291	0.288
x1 = 0.326	0.306
x1 = 0.361	0.326
x1 = 0.396	0.338
x1 = 0.433	0.349
x1 = 0.47	0.355
x1 = 0.508	0.361
x1 = 0.547	0.362
x1 = 0.586	0.359
x1 = 0.627	0.35
x1 = 0.668	0.339
x1 = 0.71	0.321
x1 = 0.753	0.296
x1 = 0.797	0.265
x1 = 0.842	0.223
x1 = 0.888	0.173
x1 = 0.935	0.109
x1 = 0.951	0.0839
x1 = 0.968	0.0573

CCOC(C)=O [ethyl acetate] + CC(C)O
Conditions	excess molar enthalpy [kcal/mol]
x1 = 0.039	0.065
x1 = 0.07	0.114
x1 = 0.1	0.155
x1 = 0.132	0.192
x1 = 0.163	0.228
x1 = 0.196	0.259
x1 = 0.229	0.289
x1 = 0.262	0.313
x1 = 0.296	0.336
x1 = 0.331	0.356
x1 = 0.366	0.372
x1 = 0.402	0.387
x1 = 0.439	0.395
x1 = 0.476	0.404
x1 = 0.514	0.409
x1 = 0.553	0.406
x1 = 0.592	0.402
x1 = 0.632	0.39
x1 = 0.673	0.374
x1 = 0.715	0.351
x1 = 0.758	0.321
x1 = 0.801	0.283
x1 = 0.845	0.239
x1 = 0.891	0.182
x1 = 0.937	0.115
x1 = 0.952	0.0903
x1 = 0.969	0.0607
